Legend:
[1] = Lipid nanoparticle size by dynamic light scattering (Malvern Zetasizer Nano ZS); assay type: physicochemical; conditions: LNP: cationic lipid/DSPC/cholesterol/PEG-lipid 50:10:38.5:1.5, hEPO mRNA
Procedure, shortened: (§1)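 Ribogreen fluorescence quantifies encapsulated mRNA and backscatter (173°) DLS sizes the particles. These are microfluidically mixed four-component LNPs in DPBS after dialysis.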

[2] = Encapsulation efficiency of lipid nanoparticles (Quant-it Ribogreen RNA quantification assay); assay type: physicochemical; conditions: LNP encapsulating hEPO mRNA
Procedure, shortened: as §1

[3] = test system: human erythropoietin (hEPO) mRNA; experiment: Animal study: hEPO expression after tail vein injection of LNPs encapsulating hEPO mRNA (serum ELISA); assay type: in vivo; conditions: hEPO level, female ICR mice, 0.5 mg/kg, 6 hours post administration; for Expression at 6 h: Table 2; for Expression at 6 h (μg/ml): class symbols, Table 3
Procedure, shortened: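 Female ICR mice (6-8 weeks) received LNPs carrying hEPO mRNA by tail vein injection at 0.5 mg/kg, with MC3 LNPs dosed the same way as positive control. Blood was drawn at set times (e.g., 6 h) and serum separated. hEPO was quantified by ELISA and reported as μg/ml.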

[4] = Apparent pKa of LNP formulations (TNS fluorescence assay); conditions: LNP cationic lipid/DSPC/cholesterol/DMG-PEG 50/10/38.5/1.5 mol %

Row | SMILES | polydispersity ([1]; Table 2) | size nm ([1]; Table 2) | Encapsulation Efficiency ([2]; Table 2) | Expression at 6 h [3] | Apparant Pka ([4]; Table 2) | polydispersity ([1]; Table 3) | size nm ([1]; Table 3) | Encapsulation Efficiency ([2]; Table 3) | Expression at 6 h (μg/ml) [3] | Apparant Pka ([4]; Table 3)
1 | CCCCCCCCC(CCCCCC)COC(=O)CCCCCN(CCCCCC(=O)OCC(CCCCCC)CCCCCCCC)CCN(CCO)C1CCCC1 (stereo not drawn) [Compound 5] | 0.029 | 54.0 nm | 96.2% | 0.25 µg/mL | 6.24 |  |  |  |  | 
2 | CCCCCCCCC(CCCCCC)COC(=O)CCCCCC(CCCCCC(=O)OCC(CCCCCC)CCCCCCCC)CN(C)CCO (stereo not drawn) [Compound 14] |  |  |  |  |  | 0.172 | 60.13 nm | 94.9% | C (≥0.1 and <1) | 9.356
3 | CCCCCCCCC(CCCCCC)CC(=O)COCCCCN(CCCCCOC(=O)CC(CCCCCC)CCCCCCCC)CCN(CCO)C1CC1 (stereo not drawn) [Compound 24] |  |  |  |  |  | 0.077 | 64.96 nm | 95.4% | C (≥0.1 and <1) | 6.087
4 | CCCCCCC(CCCCCC)CNC(=O)CCCCCN(CCCCCC(=O)OCC(CCCCCC)CCCCCC)CCN(CCO)C1CCCC1 [Compound 140] |  |  |  |  |  | 0.075 | 138.7 nm | 83.4% | A (≥2) | 6.981
5 | CCCCCCCCC(CCCCCCCC)COC(=O)CCCCCN(CCCCCC(=O)OCC(CCCCCCCC)CCCCCCCC)CCN(CCCC)C1CCC(O)CC1 (stereo not drawn) [Compound 67] |  |  |  |  |  | 0.05 | 64.75 nm | 79.3% | B (≥1 and <2) | 6.341
6 | CCCCCCCCC(CCCCCCCC)COC(=O)CCCCCN(CCCCCC(=O)OCC(CCCCCCCC)CCCCCCCC)CCN(CCO)C1CCC1 [Compound 50] |  |  |  |  |  | 0.085 | 67.68 nm | 94.90% | A (≥2) | 6.143
7 | CCCCCCCCC(CCCCCC)COC(=O)CCCCCN(CCCCCC(=O)OCC(CCCCCC)CCCCCCCC)CCN(CCCO)C1CCCCCC1 (stereo not drawn) [Compound 10] | 0.113 | 69.2 nm | 96.0% | 0.79 µg/mL | 5.83 |  |  |  |  | 
8 | CCCCCCCCC(CCCCCC)COC(=O)CCCCCN(CCCCCC(=O)OCC(CCCCCC)CCCCCCCC)CCN(CCO)C1CCCCCC1 (stereo not drawn) [Compound 3] | 0.060 | 58.7 nm | 96.3% | 2.63 µg/mL | 6.22 |  |  |  |  | 
9 | CCCCCCCCC(CCCCCC)COC(=O)CCCCCN(CCCCCC(=O)OCC(CCCCCC)CCCCCCCC)CCN(CCO)C1CCC(O)CC1 (stereo not drawn) [Compound 21] |  |  |  |  |  | 0.077 | 75.26 nm | 100.6% | D (<0.1) | 7.652
10 | CCCCCCCCC(CCCCCC)COC(=O)CCCCCN(CCCCCC(=O)OCC(CCCCCC)CCCCCCCC)CCN(CCCCCCCCO)C1CCC1 (stereo not drawn) [Compound 31] |  |  |  |  |  | 0.076 | 71.64 nm | 92.4% | C (≥0.1 and <1) | 5.822
11 | CCCCCCCCC(CCCCCC)CNC(=O)CCCCCN(CCCCCC(=O)NCC(CCCCCC)CCCCCCCC)CCN(CCO)C1CC(O)C1 (stereo not drawn) [Compound 134] |  |  |  |  |  | 0.033 | 105.50 nm | 87.9% | A (≥2) | 6.442
12 | CCCCCCCCCCCOC(=O)CCCCCN(CCCCCC(=O)OCC(CCCCCCCC)CCCCCCCC)CCN(CCO)C1CCCCC1 [Compound 83] |  |  |  |  |  | 0.087 | 67.62 nm | 93.5% | B (≥1 and <2) | 6.328
13 | CCCCCCCCC(CCCCCC)COC(=O)CCCCCN(CCCCCC(=O)OCC(CCCCCC)CCCCCCCC)CCN(CCCC)C1CCC(O)CC1 (stereo not drawn) [Compound 58] |  |  |  |  |  | 0.067 | 74.68 nm | 90.7% | A (≥2) | 6.364
14 | CCCCCCCCC(CCCCCC)COC(=O)CCCCCN(CCCCCC(=O)OCC(CCCCCC)CCCCCCCC)CCN(CCO)C1CCC1 (stereo not drawn) [Compound 1] | 0.168 | 76.5 nm | 95.7% | 16.21 µg/mL | 6.40 |  |  |  |  | 
15 | CCCCCCCCC(CCCCCC)CC(=O)NCCCCCN(CCCCCNC(=O)CC(CCCCCC)CCCCCCCC)CCN(CCO)C1CCCC1 (stereo not drawn) [Compound 114] |  |  |  |  |  | 0.025 | 87.92 nm | 89.3% | A (≥2) | 6.695
16 | CCCCCCCCC(CCCCCC)COC(=O)CCCCCN(CCCCCC(=O)OCC(CCCCCC)CCCCCCCC)C(=O)CCCN(CCO)C1CCC1 (stereo not drawn) [Compound 13] |  |  |  |  |  | 0.095 | 89.96 nm | 96.8% | C (≥0.1 and <1) | 7.206
17 | CCCCCCCCC(CCCCCC)COC(=O)CCCCCN(CCCCCC(=O)OCC(CCCCCC)CCCCCCCC)CCN(CCC)C1CC(O)C1 (stereo not drawn) [Compound 60] |  |  |  |  |  | 0.086 | 68.6 nm | 92.1% | B (≥1 and <2) | 6.329
18 | CCCCCCCCC(CCCCCC)CNC(=O)NCCCCN(CCCCNC(=O)NCC(CCCCCC)CCCCCCCC)CCN(CCO)C1CCCCC1 (stereo not drawn) [Compound 122] |  |  |  |  |  | 0.044 | 57.81 nm | 89.4% | A (≥2) | 7.048
19 | CCCCCCC(CCCCCC)COC(=O)CCCCCN(CCCCCC(=O)OCC(CCCCCC)CCCCCC)CCN(CCC)C1CCC(O)CC1 (stereo not drawn) [Compound 72] |  |  |  |  |  | 0.109 | 113.9 nm | 93.5% | A (≥2) | 6.712
20 | CCCCCCCCC(CCCCCC)COC(=O)CCCCCN(CCCCCC(=O)OCC(CCCCCC)CCCCCCCC)CCN(C1CCCCC1)C1CC(O)C1 (stereo not drawn) [Compound 92] |  |  |  |  |  | 0.04 | 66.94 nm | 95.2% | B (≥1 and <2) | 6.331
21 | CCCCCCCCC(CCCCCC)COC(=O)NCCCCN(CCCCNC(=O)OCC(CCCCCC)CCCCCCCC)CCN(CCO)C1CCC1 (stereo not drawn) [Compound 155] |  |  |  |  |  | 0.035 | 64.39 nm | 98.4% | B (≥1 and <2) | 6.797
22 | CCCCC(CCCC)CCCCCC(=O)OCCCCCN(CCCCCOC(=O)CCCCCC(CCCC)CCCC)CCN(CCO)C1CCC1 [Compound 85] |  |  |  |  |  | 0.065 | 82.91 nm | 93.7% | B (≥1 and <2) | 6.46
23 | CCCCCCCCC(CCCCCC)CC(=O)NCCCCCN(CCCCCNC(=O)CC(CCCCCC)CCCCCCCC)CCN(CCO)C1CCCCCC1 (stereo not drawn) [Compound 116] |  |  |  |  |  | 0.201 | 79.28 nm | 94.5% | A (≥2) | 6.795
24 | CCCCCCCCC(CCCCCC)CC(=O)NCCCCCN(CCCCCOC(=O)CC(CCCCCC)CCCCCCCC)CCN(CCO)C1CC1 (stereo not drawn) [Compound 117] |  |  |  |  |  | 0.157 | 76.79 nm | 95.2% | A (≥2) | 6.72

Source: patent US11472766B2, “Lipid nanoparticle composition” (Suzhou Abogen Biosciences Co., Ltd., priority 2020, dated 2022)
